Read-outs that look alike come from different tables or passages of the source.
Key:
[1] = system: AR; set-up: method as in Molina-Molina et al. [2014]; details: androgen-sensitive PALM cells; ref Molina-Molina et al. [2014]; cited from earlier work
[2] = target: T1, human androgen receptor (Homo sapiens, UniProt P10275); assay type: cell-based
T1 construct: host or cells: Chinese hamster ovary (CHO) cells, AR-EcoScreen GR KO M1, stably transfected, glucocorticoid receptor knocked out
T1 sequence (P10275 1-920): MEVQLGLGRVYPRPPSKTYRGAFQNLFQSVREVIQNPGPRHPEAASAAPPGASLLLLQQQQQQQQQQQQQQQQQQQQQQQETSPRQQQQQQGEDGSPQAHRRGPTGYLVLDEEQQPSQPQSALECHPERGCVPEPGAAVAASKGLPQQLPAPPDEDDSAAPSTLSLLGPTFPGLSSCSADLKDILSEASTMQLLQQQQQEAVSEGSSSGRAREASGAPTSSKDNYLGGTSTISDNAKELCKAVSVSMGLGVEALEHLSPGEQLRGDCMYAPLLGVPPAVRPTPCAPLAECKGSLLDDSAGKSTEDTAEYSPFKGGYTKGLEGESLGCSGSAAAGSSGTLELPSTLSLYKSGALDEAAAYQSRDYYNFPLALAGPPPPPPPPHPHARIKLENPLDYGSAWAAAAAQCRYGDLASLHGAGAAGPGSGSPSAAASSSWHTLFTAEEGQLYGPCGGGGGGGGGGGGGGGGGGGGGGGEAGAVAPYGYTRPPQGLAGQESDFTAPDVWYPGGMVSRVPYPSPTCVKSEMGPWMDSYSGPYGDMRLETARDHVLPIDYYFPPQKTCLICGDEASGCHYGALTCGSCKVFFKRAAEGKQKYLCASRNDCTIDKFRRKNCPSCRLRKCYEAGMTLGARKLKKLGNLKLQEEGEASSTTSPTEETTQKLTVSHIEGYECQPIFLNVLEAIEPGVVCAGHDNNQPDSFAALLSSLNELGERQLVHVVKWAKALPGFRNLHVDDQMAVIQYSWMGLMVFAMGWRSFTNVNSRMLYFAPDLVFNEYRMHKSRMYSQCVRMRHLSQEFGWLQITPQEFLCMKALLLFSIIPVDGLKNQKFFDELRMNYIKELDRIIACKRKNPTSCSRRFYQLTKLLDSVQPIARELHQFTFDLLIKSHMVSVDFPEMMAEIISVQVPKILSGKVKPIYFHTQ

[3] = system: estrogen receptor (ER)
[4] = system: estrogen receptor (ER); assay type: cell-based, human
[5] = target: T1, human androgen receptor; assay type: cell-based; remark: listed apart in the source
[6] = system: TK6 cells; set-up: method as in Takakura et al. [2014]; details: concentrations below 12.5 µM, 3 h of treatment, with or without human and rat liver S9; ref Takakura et al. [2014]; cited from earlier work
[7] = system: TK6 cells
[8] = ZEN compounds, S9 + PHI cofactors, [95% CI]
[9] = ZEN compounds, S9 alone, [95% CI]
[10] = without exogenous MAS, initial concentration-range finding trials, 24 h
[11] = DON compounds, S9 + PHI + PHII cofactors
[12] = DON compounds, S9 + PHII cofactors
[13] = DON compounds, S9 + PHI + PHII cofactors, [95% CI]
[14] = DON compounds, S9 + PHII cofactors, [95% CI]
[15] = DON compounds, S9 alone, [95% CI]
[16] = DON compounds, no MAS, [95% CI]

C[C@H]1CCC[C@H](O)CCC/C=C/c2cc(O)cc(O)c2C(=O)O1 [α-ZEL, α-Zearalenol]
AR antagonistic effect IC50 [1]: micromolar range
AR agonism EC10 [2]: <LOD
Estrogenic potency relative to ZEN (times more potent) [3]: ~10 times
ER agonism EC10 [3, 8]: 49.3 [30.2,75.9] pM
ER agonism EC10 [3, 9]: 4.24 [2.82,6.31] pM
ER agonism EC10 ([3]; ZEN compounds, no MAS (S9 −, PHI −, PHII −), [95% CI]): 3.70 [2.51,5.37] pM
ER agonism EC10 [3, 10]: 3.59 pM
ER antagonism IC30 ([4]; ZEN compounds, S9 + PHI + PHII cofactors, [95% CI]): 5.10 [2.88,8.13] µM
ER antagonism IC30 [4, 8]: 2.42 [1.35,3.63] µM
ER antagonism IC30 [4, 9]: 1.75 [0.69,3.02] µM
ER antagonism IC30 ([4]; ZEN compounds, no MAS, [95% CI]): 1.03 [0.33,1.78] µM
ER antagonism IC30 [4, 10]: 1.39 µM

CC(=O)OC[C@]12[C@H](O)C(=O)C(C)=C[C@H]1O[C@@H]1[C@H](O)C[C@@]2(C)[C@]12CO2 [15-Ac-DON, 15-acetyl deoxynivalenol]
AR antagonism IC30 [5, 11]: <LOD
AR antagonism IC30 [5, 12]: <LOD
AR antagonism IC30 ([5]; DON compounds, S9 alone): <LOD
AR antagonism IC30 ([5]; DON compounds, no MAS): <LOD
AR antagonism IC30 [5, 10]: <LOD
AR agonism EC10 [2, 13]: 0.52 [0.45,0.62] µM
AR agonism EC10 [2, 14]: 0.50 [0.45,0.56] µM
AR agonism EC10 [2, 15]: 0.70 [0.62,0.76] µM
AR agonism EC10 [2, 16]: 0.81 [0.74,0.87] µM
AR agonism EC10 [2, 10]: 0.77 µM
ER agonism EC10 [3, 11]: <LOD
ER agonism EC10 [3, 12]: <LOD
ER agonism EC10 [3, 15]: <LOD
ER agonism EC10 [3, 16]: <LOD
ER agonism EC10 [3, 10]: <LOD
ER antagonism IC30 [4, 13]: 0.48 [0.30,0.72] µM
ER antagonism IC30 [4, 14]: 0.24 [0.18,0.32] µM
ER antagonism IC30 [4, 15]: 1.11 [0.81,1.38] µM
ER antagonism IC30 [4, 16]: 1.09 [0.98, 1.20] µM
ER antagonism IC30 [4, 10]: 0.99 µM

CC1=C[C@H]2O[C@@H]3[C@H](O)C[C@](C)([C@@]2(CO)[C@H](O)C1=O)[C@]31CO1 [DON, deoxynivalenol]
AR antagonism IC30 [5, 11]: <LOD
AR antagonism IC30 [5, 12]: <LOD
AR antagonism IC30 ([5]; DON compounds, S9 alone): <LOD
AR antagonism IC30 ([5]; DON compounds, no MAS): <LOD
AR antagonism IC30 [5, 10]: <LOD
MN formations [6]: did not induce any significant MN formations
Micronuclei formation (% MN) versus vehicle controls ([7]; 5 h exposure, alone, with S9 alone or S9 with cofactors, ZEN 6.25 and 12.50 µM, DON 0.78 and 1.56 µM): neither ZEN nor DON alone or with the S9 alone or with cofactors had any statistically significant effect on % MN
Micronuclei formation (% MN) versus vehicle control ([7]; 24 h continuous exposure, without MAS, non-cytotoxic test concentrations): No statistically significant increases in % MN
AR agonism EC10 [2, 13]: 0.45 [0.39,0.52] µM
AR agonism EC10 [2, 14]: 0.38 [0.32,0.46] µM
AR agonism EC10 [2, 15]: 0.84 [0.72,0.98] µM
AR agonism EC10 [2, 16]: 0.87 [0.81,0.93] µM
AR agonism EC10 [2, 10]: 0.83 µM
ER agonism EC10 [3, 11]: <LOD
ER agonism EC10 [3, 12]: <LOD
ER agonism EC10 [3, 15]: <LOD
ER agonism EC10 [3, 16]: <LOD
ER agonism EC10 [3, 10]: <LOD
ER antagonism IC30 [4, 13]: 0.37 [0.25,0.58] µM
ER antagonism IC30 [4, 14]: 0.25 [0.18,0.38] µM
ER antagonism IC30 [4, 15]: 0.75 [0.54,1.05] µM
ER antagonism IC30 [4, 16]: 0.81 [0.69,1.00] µM
ER antagonism IC30 [4, 10]: 0.91 µM

CC(=O)O[C@@H]1C[C@]2(C)[C@@]3(CO)[C@H](O)C(=O)C(C)=C[C@H]3O[C@H]1[C@@]21CO1 [3-Ac-DON, 3-acetyl deoxynivalenol]
AR antagonism IC30 [5, 11]: <LOD
AR antagonism IC30 [5, 12]: <LOD
AR antagonism IC30 ([5]; DON compounds, S9 alone): <LOD
AR antagonism IC30 ([5]; DON compounds, no MAS): <LOD
AR antagonism IC30 [5, 10]: <LOD
AR agonism EC10 [2, 13]: 0.91 [0.65,1.35] µM
AR agonism EC10 [2, 14]: 0.63 [0.52,0.78] µM
AR agonism EC10 [2, 15]: 1.07 [0.91,1.23] µM
AR agonism EC10 [2, 16]: 1.11 [0.95,1.26] µM
AR agonism EC10 [2, 10]: 1.31 µM
Estrogenicity relative to α-ZEL (times lower) [3]: ~10^5 times
ER agonism EC10 [3, 11]: <LOD
ER agonism EC10 [3, 12]: <LOD
ER agonism EC10 [3, 15]: 0.53 [0.49,0.59] µM
ER agonism EC10 [3, 16]: 0.45 [0.41,0.49] µM
ER agonism, response as % of the maximum response of E2 in the assay ([3]; without MAS): 30%
ER bioassay EC10 (estrogenic) ([3]; without MAS, abstract): 310 nM
ER agonism EC10 [3, 10]: 310,000 pM
ER antagonism IC30 [4, 13]: <LOD
ER antagonism IC30 [4, 14]: <LOD
ER antagonism IC30 [4, 15]: <LOD
ER antagonism IC30 [4, 16]: <LOD
ER antagonism IC30 [4, 10]: <LOD
